Test results published in the CATMoS acute toxicity set (Mansouri et al. 2021).

Assay: GHS categories as the set defines them, by LD50: 1 up to 5, 2 up to 50, 3 up to 300, 4 up to 2000, 5 above 2000 mg/kg
Settings: rat; in vivo; po
Description: […]The data set underlying the modeling effort for this project was initially compiled by NICEATM and U.S. EPA’s CCTE. Briefly, LD50 data were collected from rat acute oral systemic toxicity tests, including limit tests, ranges/confidence intervals, and discrete LD50 values. The full data set included 21,200 LD50 entries for 15,688 substances. […] Data were reviewed to ensure that LD50 values with obvious errors in the extracted data such as unit conversion errors (e.g., comma and decimal separator misplacements) were either fixed or removed. After this review, 16,209 LD50 values remained. Many of the chemicals represented had multiple LD50 entries, requiring that a single representative value per Chemical Abstracts Service Registry Number (CASRN) identifier be defined to facilitate modeling efforts. Based on ATWG feedback and to define the representative LD50 as a protective value while accounting for the distribution across multiple LD50s, the median of the lowest quartile was computed using only discrete LD50 values (omitting limit test data and range and confidence interval data). A detailed summary of the data compilation is available online on the NICEATM webpage dedicated to the collaborative modeling project (NTP 2020).
[…][…] For categorical designations, limit test and range/confidence interval LD50 data were integrated wherever possible. As such, the number of chemicals with end point values/calls varies across the modeling end points (Table 3) based on whether chemicals had representative LD50 values and/or other data. If a chemical had both, the representative value was used to determine categorical calls rather than limit test data. Some data were useable only for certain end points and categories depending on the thresholds. For example, ranges that spanned multiple hazard categories were considered only for the binary (very toxic/nontoxic) end points and omitted from rendering a determination for hazard category assignment.
[…]The final data set comprising 11,992 chemicals was split into training and evaluation sets […], respectively. This process was performed semirandomly by ordering chemicals based on the five end points (categorical and continuous LD50 values) and partitioning every fourth record into the evaluation set accordingly. This approach was taken to ensure an equivalent distribution of the LD50 values and the different hazard categories between the training and the evaluation sets without supervised sampling of the chemicals based on structures (Figure 1A). The sources of the chemical structures were also kept equivalent between the two sets, with chemical structures obtained from DSSTox, being the highest quality, representing over 75% of each set (Figure 1B).

Compound	GHS category
O=S(=O)(O)c1ccc2c(c1)Nc1cc3nc4ccc(S(=O)(=O)O)cc4nc3cc1N2	5
O=C(O)c1ccccc1C(=O)O	5
O=C1CCc2c(OCC(O)CN3CCC(Cc4ccccc4)CC3)ccc(Br)c2N1 (stereo not drawn)	4
CC1(C)COC(Cn2cncn2)(c2cc3cc(Cl)cc(Cl)c3o2)OC1	4
COc1nc(C)nc(=NC(O)=NS(=O)(=O)c2ccccc2C(=O)O)[nH]1	5
CN1c2c(oc(=NC3CCCCC3)n(C3CCCCC3)c2=O)-c2sc(Cl)cc2S1(=O)=O	2
COC(=O)C(C)O (stereo not drawn)	5
CC(C)COC(=O)CC(C)C	5
Cc1ccc(Nc2ccc(Nc3ccc(C)cc3S(=O)(=O)O)c3c2C(=O)c2c(O)ccc(O)c2C3=O)c(S(=O)(=O)O)c1	5
CCOC(=O)C1=C(C)NC(CCl)=C(C(=O)OCC)C1c1cccc([N+](=O)[O-])c1 (stereo not drawn)	4
CCN(CCCCCCOC(=O)c1ccc(OC)c(OC)c1)C1CCc2ccccc2C1 (stereo not drawn)	5
Cc1ccc(C(=O)Nc2ccc(S(=O)(=O)O)cc2)cc1[N+](=O)[O-]	5
CCC(CC)CC1(C(=O)O)CCCCC1	4
OC(c1ccc(F)cc1F)c1cccnc1Cl (stereo not drawn)	5
C/C=C(\C)C(=O)OCC	5
CCCCCCC#CC(OC)OC	5
Nc1ccc(C(=O)O)cc1	5
COc1cccc(OC)c1C(=O)O	4
CCCCNc1cc(C(=O)O)cc(S(N)(=O)=O)c1Oc1ccccc1	5
Cc1c(Cl)ccc(OC(C)C(O)=Nc2ccccc2)c1Cl (stereo not drawn)	5
CCOC(=O)c1ccc(NC(=O)CC)cc1NC(=O)c1ccc(C(=O)O)cc1	5
C=C(C)C(=O)OCCC(F)(F)C(F)(F)C(F)(F)C(F)(F)C(F)(F)C(F)(F)F	5
CCCCCCCCCC(=O)N(C)C	5
CCCCCCCC/C=C\CCCCCCCC(=O)OCC	5
Cc1cccc2ncc(C(=O)NC(C)C)c(=O)n12	3
COc1cc2c(cc1OC)[C@@H]1C[C@H](C[C@H]3CCCCN31)OC(=O)C=Cc1ccc(O)c-2c1	4

Compound	GHS category
CCCCCCCCC=O	5
CCCCCCCCCCCC(=O)N(C)CC(=O)O	5
CCOC(=O)C1OC1C(=O)NC(CC(C)C)C(=O)NCCC(C)C (stereo not drawn)	5
CCCC(=O)c1ccc2c(c1)OCC(=O)N2C	5
O=C(OCc1cncs1)Oc1ccc([N+](=O)[O-])cc1	5
CC/C=C\CC(C)OC(=O)c1ccccc1O (stereo not drawn)	5
CCCOc1nn(C(=O)NS(=O)(=O)c2ccccc2C(=O)OC)c(=O)n1C	5
CCCCC(=O)O[C@]1(C(=O)CO)[C@@H](C)C[C@H]2[C@@H]3CCC4=CC(=O)C=C[C@]4(C)[C@@]3(F)[C@@H](O)C[C@@]21C	5
Cc1ccc(OC(N)=O)c(C(=O)Oc2ccccc2)c1	5
Cc1cc(Cl)ccc1OC(C)C(=O)Nc1ccccc1 (stereo not drawn)	5
NCC(O)CCl (stereo not drawn)	4
C=COCCOCCOC(=O)C=C	4
C=COC(=O)CCCCC(C)(C)C	5
CC(C)(C)c1ccc(C=O)cc1	4
CO/C=C(/C(=O)OC)c1ccccc1COc1cccc(C(F)(F)F)n1	5
OC1CCC(N2CCCCC2)CC1 (stereo not drawn)	5
CCCc1c(Cc2ccc(-c3ccccc3-c3nn[nH]n3)cc2)c(=O)nc2nc[nH]n12	4
O=C1c2c(Br)c(Br)c(Br)c(Br)c2C(=O)N1CCN1C(=O)c2c(Br)c(Br)c(Br)c(Br)c2C1=O	5
CC(=O)c1ccc(S(=O)(=O)NC(=O)NC2CCCCC2)cc1	5
CCCCCCCCCCCCCC(=O)OC(C)C	5
CCCN[C@H]1CCc2nc(N)sc2C1	4
CSC(C)=NOC(=O)N(C)SN(C(C)(C)C)P1(=S)OCC(C)(C)CO1	5
CCCCC(CC)CNc1ccc(NCC(CC)CCCC)c2c1C(=O)c1c(O)ccc(O)c1C2=O (stereo not drawn)	5
Nc1cc(S(=O)(=O)O)c2cc(S(=O)(=O)O)cc(S(=O)(=O)O)c2c1	5
COC(=O)[C@H]1CCCO1	5
CCC(=O)O[C@]1(C(=O)CCl)[C@@H](C)C[C@H]2[C@@H]3CCC4=CC(=O)C=C[C@]4(C)[C@@]3(F)[C@@H](O)C[C@@]21C	5

Compound	GHS category
C=Cc1ccc(O)c(C=C)c1	5
O=C1c2ccccc2C(=O)c2ccccc21	5
CC(C)C(=O)OCCOc1ccccc1	5
CCOC(=O)c1c(CSc2ccccc2)n(C)c2cc(Br)c(O)c(CN(C)C)c12	5
CCN(Cc1cccc(S(=O)(=O)O)c1)c1ccc(C(=C2C=CC(=[N+](CC)Cc3cccc(S(=O)(=O)[O-])c3)C=C2)c2ccc(S(=O)(=O)O)cc2)cc1	5
CC(C)Cc1ccc(OP(=O)(Oc2ccc(CC(C)C)cc2)Oc2ccc(CC(C)C)cc2)cc1	5
CC1=CC(=NNc2ccc(N)cc2)C=C(C)C1=O	5
COc1ccc2c(c1)CCN(c1ccccc1)C2c1ccccc1[N+](=O)[O-] (stereo not drawn)	4
O=C1c2ccc(Oc3ccc(Cl)cc3)cc2C(=O)N1Cc1cccnc1	5
C[C@@H]1[C@H](O)[C@@H](C)C=CC=CC=CC=CC=CC=CC=C[C@H](O[C@@H]2O[C@H](C)[C@@H](O)[C@H](N)[C@@H]2O)C[C@@H]2O[C@](O)(C[C@@H](O)C[C@@H](O)[C@H](O)CC[C@@H](O)C[C@@H](O)CC(=O)O[C@H]1C)C[C@H](O)[C@H]2C(=O)O	5
CCCCC(CC)COC(=O)C(C#N)=C(c1ccccc1)c1ccccc1 (stereo not drawn)	5
O=C1OCCN1N=Cc1c(N2CCCCCC2)nc2ccccn2c1=O	4
NS(=O)(=O)c1cc2c(cc1Cl)NC(C1CC3C=CC1C3)NS2(=O)=O (stereo not drawn)	5
O=C1NC(=O)C(c2ccc(O)cc2)(c2cccs2)N1 (stereo not drawn)	5
O=C(Nc1cc(Cl)c(NC(=O)c2cc3ccccc3c(N=Nc3cc(C(F)(F)F)ccc3Cl)c2O)cc1Cl)c1cc2ccccc2c(N=Nc2cc(C(F)(F)F)ccc2Cl)c1O	5
O=c1c2ccccc2[nH]c2cc3c(=O)c4ccccc4[nH]c3cc12	5
O=S(=O)(O)c1ccc2c(c1)-c1nc-2nc2[nH]c(nc3nc(nc4[nH]c(n1)c1ccc(S(=O)(=O)O)cc41)-c1ccc(S(=O)(=O)O)cc1-3)c1ccc(S(=O)(=O)Nc3ccc(S(=O)(=O)CCO)cc3)cc21	5
NC(=O)NC(c1ccccc1)c1ccccc1	5
CC1CCC(C(C)C)C(OC(=O)C2OC(O)CS2)C1 (stereo not drawn)	5
COC(=O)CC(C)C(=O)c1ccc(NC(=O)c2ccc(OC)cc2)c([N+](=O)[O-])c1 (stereo not drawn)	5
Nc1ccc([N+](=O)[O-])cc1O	5
CC(C)(C)CC(C)(C)c1ccc(O)c(Cc2ccc(Cl)cc2Cl)c1	5
CC1CC(OC(=O)COc2cccc(C(F)(F)F)c2)CC(C)(C)C1 (stereo not drawn)	5
C[C@@H]1CN(c2c(F)c(N)c3c(=O)c(C(=O)O)cn(C4CC4)c3c2F)C[C@H](C)N1 (racemic)	5
C#C[C@]1(O)CC[C@H]2[C@@H]3CCC4=CC(=O)CC[C@]4(C)[C@H]3CC[C@@]21C	5
O=C(O)C(O)C(O)C(O)C(O)C(O)CO (stereo not drawn)	5
